Laboratory results published in patent US10456414B2, “Methods for treating HCV” (priority 2011, dated 2019).
“And” between values parts separate entries of the source, which are not always exact repeats. Equal entries are not always repeated. Where two headings read alike, the source gives them in different places. Marks after values point to notes of the source that are not given here.

Columns and labels:
HCV genotype 1a replicon [1] = experiment: HCV genotype 1a replicon assay, EC50 (Biological Example 3); format: cell-based; settings: 3 days
[2] = tested on: Huh-7 cells carrying a HCV genotype 1a replicon; experiment: HCV genotype 1a replicon assay, CC50 by calcein AM (Biological Example 3); format: cell-based; settings: genotype 1a replicon cells, 3 days
Procedure: The CC50 assay was performed first.

[3] = tested on: 1b Huh-luc replicon cells; experiment: Antiviral combination studies with Compound 5, MacSynergy II; format: cell-based, HCV; settings: for Antagonism Volume / Synergy Volume: in combination with Compound 5, mean ± standard deviation
Procedure: Combination data were analyzed based on the Bliss Independence model using MacSynergy II software. Results of the combination assays were expressed as mean synergy and antagonism volumes (nM^2) calculated at 95% confidence from two independent experiments performed in triplicate.

[4] = Drug-drug interactions of co-administered compounds (exposure); format: in vivo
Procedure: With respect to Compounds 9 and 10, or pharmaceutically acceptable salts thereof, the composition may comprise 10 mg to 1000 mg per day (according to US 2010/0298257). With respect to Compound 11, or pharmaceutically acceptable salts thereof, the composition may comprise 1 mg to 1000 mg per day (according to US 2010/0081628).

genotype 1b replicon RNA = experiment: Replicon RNA suppression, 6 day assay, QRT-PCR
[5] = tested on: Genotype 1 b replicon cells; experiment: Compound combination replicon cure assay, colony formation; settings: 6 days treatment at the same concentrations, then G418 for 14 days
HCV genotype 1a replicon [6] = experiment: Antiviral combination studies with Compound 4, MacSynergy II; settings: for Antagonism Volume / Synergy Volume: in combination with Compound 4, mean ± standard deviation; for Interaction: in combination with Compound 4
[7] = tested on: HCV 1b replicon system (Huh-luc); experiment: Antiviral combination studies with Compound 6, MacSynergy II; settings: for Antagonism Volume / Synergy Volume: in combination with Compound 6, mean ± standard deviation; for Interaction: in combination with Compound 6
[8] = tested on: Huh-7 cells carrying a HCV genotype 1a replicon; experiment: Cytotoxicity combination studies with Compound 4, MacSynergy II; settings: for Antagonism Volume (cytotoxicity) / Synergy Volume (cytotoxicity): in combination with Compound 4, mean ± standard deviation
[9] = HCV genotype 1a replicon assay, CC50 by calcein AM (Biological Example 8); settings: human, Huh-7 cells carrying an HCV genotype 1a replicon
[10] = Hepatitis C virus, 72 h, average ± standard deviation, read-out: EC50
[11] = single compound at the listed concentration, 6 days, relative to DMSO control (Table XIV)

Row | Molecule | EC50 (HCV genotype 1a replicon [1]; [10]) [nM] | CC50 ([2]; read-out: CC50) [nM] | Antagonism Volume [3] [nM^2] | Synergy Volume [3] [nM^2] | Replicon RNA log drop (genotype 1b replicon RNA; [11]) [log] | Uncured colony number [5] | Antagonism Volume (HCV genotype 1a replicon [6]) [nM^2%] | Synergy Volume (HCV genotype 1a replicon [6]) [nM^2%] | Antagonism Volume [7] [nM^2] | Synergy Volume [7] | Interaction (cytotoxicity) ([8]; in combination with Compound 4) | Antagonism Volume (cytotoxicity) [8] [nM^2%] | Synergy Volume (cytotoxicity) [8] [nM^2%] | Interaction (HCV genotype 1a replicon [6]) | Interaction [7] | also measured
1 | Fc1ccccc1-c1nc2ccn(Cc3ccc(-c4ccc(C(F)(F)F)cc4C(F)(F)F)nn3)cc-2n1 [Compound 1, 5-((6-(2,4-bis(trifluoromethyl)phenyl)pyridazin-3-yl)methyl)-2-(2-fluorophenyl)-5H-imidazo[4,5-c]pyridine] | 19 ± 8 | > 44400 | 0 ± 0 | 70 ± 26 | −1.0 | 657 | −1 ± 2 | 34 ± 26 | −17 ± 0.7 | 34 nM^2 and 34 ± 9.9 nM^2 | Additivity (Additivity: ≤25 and >−25 nM^2%) | 0 ± 1 | 13 ± 11 |  |  | increase of exposure of Compound 1 by Compound 2 ([4]; co-administered with Compound 2): 2-3 ×; effect on drug metabolizing systems ([4]; in vivo): does not appear that Compound 1 affects drug metabolizing systems; Replicon RNA log drop (genotype 1b replicon RNA): −1.0 log; CC50 at 3 days [9]: > 44400 nM
2 | COc1ccc2c(O[C@@H]3C[C@H]4C(=O)N[C@]5(P(=O)(O)Cc6c(F)cccc6F)C[C@H]5CCCCCCC[C@H](NC(=O)OC5CCCC5)C(=O)N4C3)cc(-c3csc(NC(C)C)n3)nc2c1Cl [Compound 2, (2R,6S,13aR,14aS,16aS)-2-(8-chloro-2-(2-(isopropylamino)thiazol-4-yl)-7-methoxyquinolin-4-yloxy)-6-(cyclopentyloxycarbonylamino)-5,16-dioxooctadecahydrocyclopropa[e]pyrrolo[1,2-a][1,4]diazacyclopentadecin-14a-yl(2,6-diflurobenzyl)phosphinic acid] | 496 ± 135 | > 22200 | −7 ± 7 | 22 ± 12 |  |  | −2 ± 3 | 22 ± 14 | −0.7 ± 0.7 | 52 nM^2 and 52 ± 5.1 nM^2 | Additivity (Additivity: ≤25 and >−25 nM^2%) | 0 ± 0 | 17 ± 14 | Additivity (Additivity: ≤25 and >−25 nM^2%) | Moderate Synergy | Interaction ([3]; in combination with Compound 5): Additive
3 | CC(C)OC(=O)[C@H](C)N[P@](=O)(OC[C@H]1O[C@@](C#N)(c2ccc3c(N)ncnn23)[C@](C)(O)[C@@H]1OC(=O)C(C)C)Oc1ccccc1 [Compound 4] | 201 ± 74 |  | −1 ± 3 | 26 ± 28 | −1.2 | 1054 |  |  |  |  |  |  |  |  |  | Compound concentration able to induce replicon RNA 1-1.5 log drop in a 6 day assay (genotype 1b replicon RNA; genotype 1b replicon cells, 6 days): 1000 nM; Interaction (cytotoxicity) ([8]; in combination with Ribavirin (Table IX)): Additivity (Additivity: ≤25 and >−25 nM^2%)
4 | CC(C)C(=O)OCC1O[C@@H](n2ccc(N)nc2=O)[C@](C)(F)[C@@H]1OC(=O)C(C)C (stereo partly shown) [Compound 7] |  |  |  |  |  |  |  |  | −0.2 ± 0.1 | 51 nM^2 and 51 ± 7.8 nM^2 |  |  |  |  | Moderate Synergy | 
5 | IFN-α |  |  |  |  |  |  | 0 ± 0 | 12 ± 6 | 0.0 ± 0.0 | 32 nM^2 and 32 ± 1.4 nM^2 | Additivity (Additivity: ≤25 and >−25 nM^2%) | −7 ± 13 | 8 ± 12 | Additivity (Additivity: ≤25 and >−25 nM^2%) | Minor Synergy | EC50 (HCV genotype 1a replicon [1]; IFN-α in Units per milliliter): 1.4 ± 0.3^b U/mL; CC50 ([2]; IFN-α in Units per milliliter): >50^b U/mL
